Article PMC4774911, “Biochemical Screening of Five Protein Kinases from Plasmodium falciparum against 14,000 Cell-Active Compounds” (PLoS ONE, 2016)
Where two headings read alike, the source gives them in different places.

Experiments:
[1] = system: 3D7 PFLDH; design: method as in F.J. Gamo et al., Nature 2010; concentration or dose not given beside the values; settings: downloaded from ChEMBL, ref F.J. Gamo et al., Nature 2010; cited from earlier work
[2] = molecular target: T1, Plasmodium falciparum protein kinase 6 (PK6) (Plasmodium falciparum, UniProt Q8IDW1); assay: biochemical
T1 construct: 6-Histidine (N); made in house
T1 sequence (Q8IDW1 1-305): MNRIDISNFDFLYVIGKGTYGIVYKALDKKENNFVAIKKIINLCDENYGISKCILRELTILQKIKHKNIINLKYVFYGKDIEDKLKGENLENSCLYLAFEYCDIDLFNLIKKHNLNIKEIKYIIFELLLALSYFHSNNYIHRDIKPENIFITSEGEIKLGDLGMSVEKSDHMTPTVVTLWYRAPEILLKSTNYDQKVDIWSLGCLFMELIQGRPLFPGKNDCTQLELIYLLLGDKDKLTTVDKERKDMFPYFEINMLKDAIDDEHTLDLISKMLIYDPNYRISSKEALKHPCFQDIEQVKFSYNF

[3] = system: P. falciparum 3D7 cells; settings: Nature 2010, cited from earlier work
[4] = system: DD2; design: method as in F.J. Gamo et al., Nature 2010; settings: downloaded from ChEMBL, ref F.J. Gamo et al., Nature 2010; cited from earlier work
[5] = system: HepG2 cells; settings: Nature 2010, cited from earlier work
[6] = molecular target: T2, Plasmodium falciparum calcium-dependent protein kinase 1 (CDPK1) (Plasmodium falciparum, UniProt P62344); assay: CDPK1 Kinase-Glo ATP-consumption screen and dose-response; assay type: biochemical; settings: hits below 1 uM; read-out: CDPK1 IC50
T2 construct: 6-Histidine (N); made in house
T2 sequence (P62344 whole entry): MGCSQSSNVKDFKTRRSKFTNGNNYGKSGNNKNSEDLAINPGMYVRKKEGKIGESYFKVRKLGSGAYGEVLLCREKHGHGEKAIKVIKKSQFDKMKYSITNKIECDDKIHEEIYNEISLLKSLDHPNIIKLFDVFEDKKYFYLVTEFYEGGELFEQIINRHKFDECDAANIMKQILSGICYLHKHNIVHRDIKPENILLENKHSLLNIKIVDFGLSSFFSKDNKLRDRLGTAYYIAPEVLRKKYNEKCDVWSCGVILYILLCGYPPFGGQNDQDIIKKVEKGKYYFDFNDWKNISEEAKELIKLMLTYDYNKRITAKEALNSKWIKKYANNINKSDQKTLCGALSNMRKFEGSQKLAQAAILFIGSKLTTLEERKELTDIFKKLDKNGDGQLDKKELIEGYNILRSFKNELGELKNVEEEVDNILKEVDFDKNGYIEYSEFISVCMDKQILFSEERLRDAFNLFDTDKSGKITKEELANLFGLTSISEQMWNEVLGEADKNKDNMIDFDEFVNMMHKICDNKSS
Protocol: Biochemical assays were performed in white 384-well plates (Nunc). Liquid transfers were done manually with 8-channel pipets. Compounds were initially tested in a single-point screen (final concentration 1 μM). […] The catalytic activity of each kinase was considered proportional to ATP consumed, as determined from measurements of residual [ATP] with the luciferase-based reagent Kinase-Glo (Promega) following incubation. Luminescence (proportional to residual [ATP]) was measured on the plate readers FLx800 (BioTek Instruments, Winooski, VT, USA) and MicroBeta^2 (PerkinElmer, Waltham, MA, USA). Incubation times were chosen to ensure near-complete ATP depletion in the absence of inhibition, thus maximizing the difference in signal between inhibited and uninhibited wells.
40 μM Syntide-2 was used as a substrate; BKI-1 [14] was used as a control inhibitor, while reaction mixtures lacking Syntide-2 were included as an additional negative control. Incubation time was 90 minutes. Reactions were terminated by adding excess EGTA (5 mM), which sequesters Ca^2+ and halts calcium-dependent kinase activity.

[7] = system: 3D7 PFLDH; design: method as in F.J. Gamo et al., Nature 2010; settings: downloaded from ChEMBL ref F.J. Gamo et al., Nature 2010; cited from earlier work
[8] = system: DD2; design: method as in F.J. Gamo et al., Nature 2010; settings: P. falciparum Dd2; downloaded from ChEMBL ref F.J. Gamo et al., Nature 2010; cited from earlier work
[9] = hits below 1 uM, read-out: PK6 IC50
[10] = 3D7, downloaded from ChEMBL, ref F.J. Gamo et al.
[11] = HepG2, downloaded from ChEMBL, ref F.J. Gamo et al.
[12] = P. falciparum 3D7, downloaded from ChEMBL ref F.J. Gamo et al.
[13] = HepG2 cells, downloaded from ChEMBL ref F.J. Gamo et al.

Row | IC50 [2, 9] [nM] | IC50 [6] [nM] | Structure (SMILES) | PCT_INHIB_3D7_PFLDH [1] [%] | PCT_IHB_3D7 [3, 10] [%] | pXC50_3D7 [3, 10] | PCT_INHB_DD2 [4] [%] | PCT_INHIB_HEPG2 [5, 11] [%] | IC50 [2] [nM] | PCT_IHB_3D7 [3, 12] | pXC50_3D7 [3, 12] | PCT_INHIB_3D7_PFLDH [7] | PCT_INHIB_HEPG2 [5, 13] | PCT_INHB_DD2 [8]
1 | 691 |  | CS(=O)(=O)Cc1ccc(Nc2ncc(Cl)c(Nc3cccnc3C(N)=O)n2)cc1.Cl [TCMDC-134165] | 0 | 97 | 6.062 | 97 | 54 |  |  |  |  |  | 
2 | 74 |  | CS(=O)(=O)Cc1cccc(Nc2ncc(Cl)c(Nc3cccnc3C(N)=O)n2)c1.Cl [TCMDC-134166] | 0 | 96 | 6.775 | 97 | 56 |  |  |  |  |  | 
3 | 402 |  | CN(c1ccc(NC(=O)Nc2cccc(Cl)c2)cc1)c1ccnc(N)n1.Cl [TCMDC-138782] | 0 | 100 | 6.202 | 40 | 75 |  |  |  |  |  | 
4 |  |  | CCN(CC)CCNc1nccc(N(C)c2ccc(NC(=O)Nc3cc(C(F)(F)F)ccc3F)cc2)n1.O=C(O)C(F)(F)F [TCMDC-141632] | 1 | 97 | 6.26 | 25 | 74 | 917 |  |  |  |  | 
5 | 270 | 967 | COc1ccc(Nc2ncc(OC)c(Nc3ccccc3C(N)=O)n2)cc1N1CCN(C)CC1.O=CO [TCMDC-134149] | 0 | 100 | 6.131 | 96 | 63 |  |  |  |  |  | 
6 | 80 | 58 | Cl.NC(=O)c1ccccc1Nc1nc(Nc2cccc(N3CCN(CCO)CC3)c2)ncc1Cl [TCMDC-134114] | 1 | 95 | 7.402 | 98 | 93 |  |  |  |  |  | 
7 | 133 | 145 | CNC(=O)c1ccccc1Nc1nc(Nc2cccc(CS(C)(=O)=O)c2)ncc1C.O=CO [TCMDC-133809] | 0 | 97 | 6.2733 | 95 | 74 |  |  |  |  |  | 
8 | 61 | 89 | COc1ccc(Nc2ncc(C#N)c(Nc3ccccc3C(N)=O)n2)cc1N1CCN(C)CC1.Cl [TCMDC-134117] | 0 | 93 | 6.867 | 97 | 56 |  |  |  |  |  | 
9 | 385 | 145 | CS(=O)(=O)Cc1ccc(Nc2nccc(N3CCCc4cc(NC(=O)Nc5cccc(C(F)(F)F)c5)ccc43)n2)cc1 [TCMDC-134309] | 0 | 100 | 6.829 | 99 | 46 |  |  |  |  |  | 
10 | 128 |  | CC(=O)Nc1ccc(Nc2ncc([N+](=O)[O-])c(Nc3ccccc3C(N)=O)n2)cc1.Cl [TCMDC-138731] | 2 | 98 | 6.437 | 97 | 42 |  |  |  |  |  | 
11 | 844 |  | CN(c1ccc2c(c1)nc(NCc1ccc(F)cc1)n2C)c1ccnc(Nc2ccc(CS(C)(=O)=O)cc2)n1.Cl [TCMDC-138747] | 7 | 97 | 6.082 | 79 | 48 |  |  |  |  |  | 
12 | 138 |  | CC(=O)c1ccc(NC(=O)Nc2ccc(N(C)c3ccnc(Nc4cccc(CS(C)(=O)=O)c4)n3)cc2)cc1 [TCMDC-138736] | 0 | 100 | 6.9122 | 98 | 86 |  |  |  |  |  | 
13 |  | 347 | CC(C)(CNC(=O)C1CCN(Cc2ccc(Cl)cc2)CC1)c1nc(-c2ccc(Cl)c(O)c2)c(-c2ccncc2)[nH]1.Cl [TCMDC-141138] |  |  |  |  |  |  | 100 | 6.206 | 0 | 36 | 83
14 | 269 |  | CCNC(=O)Nc1ccc(N(C)c2ccnc(Nc3ccc(CS(C)(=O)=O)cc3)n2)cc1.Cl [TCMDC-138759] | 2 | 100 | 7.051 | 99 | 0 |  |  |  |  |  | 
15 |  | 275 | COc1cccc(CNCC(C)(C)c2nc(-c3ccc(Cl)c(O)c3)c(-c3ccncc3)[nH]2)c1.Cl [TCMDC-140687] |  |  |  |  |  |  | 100 | 6.159 | 0 | 74 | 98
16 |  | 145 | CCNC(=O)Nc1ccc(-c2cnc(N)c(-c3nc4ccc(OC)cc4[nH]3)c2)cc1 [TCMDC-135321] |  |  |  |  |  |  | 100 | 6.302 | 1 | 51 | 43
17 |  | 144 | CC(C)(NCc1ncc[nH]1)c1nc(-c2ccc(Cl)c(O)c2)c(-c2ccncc2)[nH]1.Cl [TCMDC-140686] |  |  |  |  |  |  | 95 |  | 3 | 42 | 97
18 |  | 296 | Cc1cccc2[nH]c(-c3cc(-c4cn[nH]c4)cnc3N)nc12 [TCMDC-133561] |  |  |  |  |  |  | 100 | 6.6562 | 0 | 37 | 93
19 |  | 501 | COc1ccc2nc(-c3cc(-c4ccc(NC(C)=O)cc4)cnc3N)[nH]c2c1 [TCMDC-135365] |  |  |  |  |  |  | 93 | 5.906 | 0 | 55 | 73
20 |  | 179 | CC(C)(CNC(=O)[C@H]1CCCN1)c1nc(-c2ccc(Cl)c(O)c2)c(-c2ccncc2)[nH]1.Cl [TCMDC-141060] |  |  |  |  |  |  | 86 | 5.895 | 0 | 0 | 95
21 |  | 7.49 | CC(C)(CN)c1nc(-c2ccc(Cl)c(O)c2)c(-c2ccnc(N)n2)[nH]1 [TCMDC-141019] |  |  |  |  |  |  | 95 | 6.0083 | 0 | 34 | 95
22 |  | 280 | Nc1ncc(-c2cn[nH]c2)cc1-c1nc2cc(Cl)cnc2[nH]1 [TCMDC-133562] |  |  |  |  |  |  | 100 | 6.039 | 1 | 40 | 70

Row | Structure (SMILES) | IC50 [2, 9] [nM] | IC50 [6] [nM] | PCT_INHIB_3D7_PFLDH [1] [%] | PCT_IHB_3D7 [3, 10] [%] | pXC50_3D7 [3, 10] | PCT_INHB_DD2 [4] [%] | PCT_INHIB_HEPG2 [5, 11] [%] | IC50 [2] [nM] | PCT_IHB_3D7 [3, 12] | pXC50_3D7 [3, 12] | PCT_INHIB_3D7_PFLDH [7] | PCT_INHIB_HEPG2 [5, 13] | PCT_INHB_DD2 [8]
23 | CN(c1ccc(NC(=O)Nc2cc(C(C)(C)C)on2)cc1)c1ccnc(NCCN2CCOCC2)n1.O=C(O)C(F)(F)F [TCMDC-141706] | 375 |  | 0 | 95 | 5.949 | 18 | 51 |  |  |  |  |  | 
24 | CCN(CC)CCCNc1nccc(N(C)c2ccc(NC(=O)Nc3cc(C(F)(F)F)ccc3F)cc2)n1.O=C(O)C(F)(F)F [TCMDC-141634] | 705 |  | 0 | 94 | 5.978 | 19 | 96 |  |  |  |  |  | 
25 | CN(c1ccc(NC(=O)Nc2cc(C(F)(F)F)ccc2F)cc1)c1ccnc(NCCN2CCOCC2)n1.O=C(O)C(F)(F)F [TCMDC-141590] | 520 |  | 0 | 97 | 6.29 | 73 | 67 |  |  |  |  |  | 
26 | O=C(O)C(F)(F)F.O=c1[nH]ccc2nc(N[C@@H]3CCCNC3)nc(Nc3ccc(S(=O)(=O)N4CCOCC4)cc3)c12 [TCMDC-135038] | 115 | 146 | 0 | 96 | 6.13 | 99 | 13 |  |  |  |  |  | 
